According to patent publication US20260297016A1, “THERAPEUTIC COMPOUNDS” (REGENTS OF THE UNIVERSITY OF MINNESOTA, priority 2023, published 2026):
“Also recorded” adds a separate entry of the source.

How the values were obtained:
PPAR subtypes = conditions: cited from earlier work
PPARα = conditions: cited from earlier work
[1] = system: patients with type 2 diabetes; conditions: orally administered, FIELD and ACCORD; cited from earlier work
STING = target: T1, STING (Homo sapiens, UniProt Q86WV6, G230A/H232R/R293Q/R71H); test: IRF-Lucia Reporter STING Inhibition Assay (THP-1 Lucia ISG cells); type: cell-based; conditions: 1 μM 2,3-cGAMP, 20 hours
T1 construct: THP-1 Lucia ISG cells (InvivoGen, thpl-isg); host or cells: THP-1 Lucia ISG cells
Experimental: IRF-Lucia Reporter STING Inhibition Assay. […] Cells were incubated at 37° C. in a 5% CO2 atmosphere with varying concentrations of test compound for 1.5 hours, followed by treatment with 1 μM 2,3-cGAMP (InvivoGen, tlrl-nacga23-02) and incubated for 20 hours. A 20 μL aliquot of cell suspension was added to 50 μL. QUANTI-Luc™ reagent (InvivoGen, rep-qlc4lg2), and the resulting luminescence is measured by a GloMax Explorer (Promega) with a 0.1 second read time.

661 W cells [2] = test: 4-HNE-induced ROS production in 661 W cells; conditions: 12.5 μM, 2 hours, 4-HNE 10 μM, 24 hours, n=6
661 W cells [3] = test: Viability of 661 W cells after H2O2 (trypan blue exclusion)
HMC3 cells = conditions: 12.5 μM, 200 μM TBHP
661 W cells [4] = test: Viability of 661 W cells after 4-HNE (trypan blue exclusion)
661 W cells [5] = conditions: 12.5 μM, 2 hours, H2O2 500 μM, 24 hours, n=6

T1 sequence (Q86WV6 whole entry R71H/G230A/H232R/R293Q): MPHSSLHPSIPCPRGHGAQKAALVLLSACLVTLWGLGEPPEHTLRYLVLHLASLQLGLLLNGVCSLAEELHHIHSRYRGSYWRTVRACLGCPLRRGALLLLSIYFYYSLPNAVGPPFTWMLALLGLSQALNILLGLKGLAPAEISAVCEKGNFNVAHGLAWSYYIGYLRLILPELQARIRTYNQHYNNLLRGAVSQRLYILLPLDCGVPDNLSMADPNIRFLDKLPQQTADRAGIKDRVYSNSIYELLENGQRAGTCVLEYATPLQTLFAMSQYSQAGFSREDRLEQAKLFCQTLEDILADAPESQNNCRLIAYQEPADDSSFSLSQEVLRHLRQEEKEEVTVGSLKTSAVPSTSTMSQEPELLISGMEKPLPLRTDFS

| % STING INHIBITION, % at 12.5 μm (STING) | % STING INHIBITION, % at 25 μm (STING) | % STING INHIBITION, % at 50 μm (STING) | Structure (SMILES) | other results |
| --- | --- | --- | --- | --- |
|  |  |  | CC(C)OC(=O)C(C)(C)Oc1ccc(C(=O)c2ccc(Cl)cc2)cc1 [fenofibrate] | selectivity among PPAR subtypes (PPAR subtypes): lack of selectivity among PPAR subtypes; affinity for PPARα (PPARα): low affinity for PPARα; progression of DR and other microvascular endpoints [1]: significantly reduced the progression of DR and other microvascular endpoints |
| 0% | 0% | 0% | O=C(O)c1cc(NCc2ccc(-c3ccc(O)cc3)cc2)ccc1O [Example 35, 2-Hydroxy-5-(((4′-hydroxy-[1,1′-biphenyl]-4-yl)methyl)amino)benzoic acid] |  |
| 9% | 31% | 53% | COc1ccc(NCc2ccc(-c3ccc(F)cc3)cc2)cc1C(=O)O [Example 46, 5-(((4′-fluoro-[1,1′-biphenyl]-4-yl)methyl)amino)-2-methoxybenzoic acid] |  |
| 0% | 0% | 0% | CS(=O)(=O)c1ccc(-c2ccc(CNc3ccc(O)c(C(=O)O)c3)cc2)cc1 [Example 34, 2-Hydroxy-5-(((4′-(methylsulfonyl)-[1,1′-biphenyl]-4-yl)methyl)amino)benzoic acid] |  |
|  |  |  | O=C(Nc1ccc(O)c(NS(=O)(=O)c2ccc(F)cc2)c1)c1ccc(-c2ccccc2)cc1 [SN-011] | 4-HNE-induced production of ROS (661 W cells [2]): the difference between SN011 and Example 17 is less pronounced; cell viability after H2O2 (661 W cells [3]; 1 μM and 10 μM, H2O2 500 μM, 24 hours, n=3): fails to show a dose-response improvement between 1 μM and 10 μM; also recorded: Improvement in cell viability; cell viability after H2O2 (661 W cells [3]; 1 μM, SN-011 vs Example 31): no significant difference; TBHP-induced production of ROS (oxidative stress) (HMC3 cells): greater reduction in oxidative stress than PPARα agonism (Example 31 (BH400); cell viability after 4-HNE (661 W cells [4]; 1 μM and 10 μM, 4-HNE 10 μM, 24 hr, n=3): fails to show a dose-response improvement between 1 μM and 10 μM; also recorded: Improvement in cell viability; cell viability after 4-HNE (661 W cells [4]; 1 μM, SN-011 vs Example 31): no significant difference; H2O2-induced ROS production (661 W cells [5]): the difference between SN011 and Example 17 is less pronounced |
| 0% | 28% | 66% | O=C(O)c1cc(NCc2ccc(-c3ccccc3)cc2)ccc1O [Example 37, 5-(([1,1′-Biphenyl]-4-ylmethyl)amino)-2-hydroxybenzoic acid] |  |
| 28% | 43% | 64% | O=C(O)c1cc(NCc2ccc(-c3ccc(C(F)(F)F)cc3)cc2)ccc1O [Example 32, 2-hydroxy-5-(((4′-(trifluoromethyl)-[1,1′-biphenyl]-4-yl)methyl)amino)benzoic acid] |  |
| 0% | 12% | 81% | Cc1cc(-c2ccc(CNc3ccc(O)c(C(=O)O)c3)cc2)ccc1F [Example 44, 5-(((4′-Fluoro-3′-methyl-[1,1′-biphenyl]-4-yl)methyl)amino)-2-hydroxybenzoic acid] |  |
| 0% | 0% | >95% | CC(C)(C)c1ccc(-c2ccc(CNc3ccc(O)c(C(=O)O)c3)cc2)cc1 [Example 36, 5-(((4′-(tert-Butyl)-[1,1′-biphenyl]-4-yl)methyl)amino)-2-hydroxybenzoic acid] |  |
| 25% | 47% | 80% | Cc1cc(F)ccc1-c1ccc(CNc2ccc(O)c(C(=O)O)c2)cc1 [Example 41, 5-(((4′-Fluoro-2′-methyl-[1,1′-biphenyl]-4-yl)methyl)amino)-2-hydroxybenzoic acid] |  |
|  |  |  | CC(C)(Oc1ccc(C(=O)c2ccc(Cl)cc2)cc1)C(=O)O [fenofibric acid] | agonism of PPARα by major metabolite (PPARα; major metabolite of fenofibrate): agonism of PPARα |
| 0% | 32% | 77% | Oc1ccc(NCc2ccc(-c3ccc(F)cc3)cc2)cc1-c1nnn[nH]1 [Example 48] |  |
| 0% | 0% | 0% | COc1cc(F)ccc1-c1ccc(CNc2ccc(O)c(C(=O)O)c2)cc1 [Example 39, 5-(((4′-Fluoro-2′-methoxy-[1,1′-biphenyl]-4-yl)methyl)amino)-2-hydroxybenzoic acid] |  |
| 0% | 0% | 0% | COc1ccc(NCc2ccc(-c3ccc(F)cc3)cc2)cc1C#N [Example 43, 5-(((4′-Fluoro-[1,1′-biphenyl]-4-yl)methyl)amino)-2-methoxybenzonitrile] |  |
